Experimental data taken from patent publication US9617237B2, “Partially saturated tricyclic compounds and methods of making and using same” (Zafgen, Inc., priority 2011, dated 2017).
pIC50: −log10 of the molar value.

Target: T1, recombinant human MetAP2 (Homo sapiens, UniProt P50579)
T1 construct: made in house; host or cells: Sf9 insect cells
Assay: Inhibition of recombinant human MetAP2 activity (fluorescence, MAS substrate, amino acid oxidase/Amplex red)
Assay type: biochemical
Conditions: manganese enzyme; 0.75 mM Methionine-Alanine-Serine (MAS) substrate; 30 minutes at 25° C.; pH 7.5; 1% DMSO
Procedure: Compounds are tested for their capacity to inhibit recombinant human MetAP2 activity using the following assay.
Human recombinant MetAP2 expressed in Sf9 cells followed by affinity purification and EDTA treatment to remove endogenous active site cation was dialysed against MnCl2 to produce the manganese enzyme used in the assay. The assay was carried out for 30 minutes at 25° C. in 50 mM HEPES buffer containing 100 mM NaCl, pH 7.5 the presence of 0.75 mM Methionine-Alanine-Serine (MAS) substrate and 50 μg/ml amino acid oxidase using a dilution of purified MetAP2 giving >3-fold signal: noise. Cleavage of the substrate by MetAP2 and oxidation of free methionine by amino acid oxidase was detected and quantified using fluorescence generated by Amplex red (10-acetyl-3,7-dihydroxyphenoxazine) in combination with horseradish peroxidase which detects H2O2 released during the oxidation step. The fluorescent signal was detected using a multiwell fluorimeter. Compounds were diluted in DMSO prior to addition to assay buffer, the final DMSO concentration in the assay being 1%.
IC50 values are calculated using the XLfit software package (version 2.0.5).

T1 sequence (P50579 whole entry): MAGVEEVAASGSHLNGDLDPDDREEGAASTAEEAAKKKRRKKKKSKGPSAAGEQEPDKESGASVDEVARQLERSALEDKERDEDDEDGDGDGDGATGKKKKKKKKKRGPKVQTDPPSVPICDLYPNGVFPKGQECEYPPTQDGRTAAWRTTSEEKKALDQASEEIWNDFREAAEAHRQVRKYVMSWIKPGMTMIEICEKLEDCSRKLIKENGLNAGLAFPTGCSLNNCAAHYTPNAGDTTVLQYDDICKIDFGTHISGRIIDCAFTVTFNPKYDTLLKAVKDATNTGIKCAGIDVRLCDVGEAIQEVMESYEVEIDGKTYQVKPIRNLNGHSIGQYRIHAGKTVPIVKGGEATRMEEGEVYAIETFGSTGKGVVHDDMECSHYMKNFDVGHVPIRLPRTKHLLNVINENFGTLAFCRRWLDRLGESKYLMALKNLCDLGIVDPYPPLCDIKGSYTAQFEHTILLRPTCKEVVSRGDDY

Structure (SMILES)	pIC50
CCN(CC)C/C(C)=C\c1cc(F)ccc1S(=O)(=O)Nc1ccc2c(c1C(=O)O)OC[C@@H]1C[C@H]21 (racemic) [(1aRS,7bSR)-5-[2-((Z)-3-Diethylamino-2-methylprop-1-enyl)-4-fluorobenzene-sulfonylamino]-1,1a,2,7b-tetrahydrocyclopropa-[c]chromene-4-carboxylic acid]	> 7.30
O=C(O)c1c(NS(=O)(=O)c2ccccc2N[C@H]2CN3CCC2CC3)ccc2c1OCC1CC21 (mixture of isomers) [(1aRS,7bSR)-5-{2-[((R)-1-Azabicyclo[2.2.2]oct-3-yl)amino]benzenesulfonyl-amino}-1,1a,2,7b-tetrahydrocyclopropa[c]chromene-4-carboxylic acid]	> 7.30
CCN1CC[C@H](OCc2cc(F)ccc2S(=O)(=O)Nc2ccc3c(c2C(=O)O)OC[C@@H]2C[C@H]32)C1 [(1aR,7bS)-5-[2-((S)-1-Ethylpyrrolidin-3-yloxymethyl)-4-fluoro-benzenesulfonylamino]-1,1a,2,7b-tetrahydrocyclopropa-[c]chromene-4-carboxylic acid]	6.30 to 7.30
CCN(CC)CC/C=C\c1cc(F)ccc1S(=O)(=O)Nc1ccc2c(c1C(=O)O)OCC1CC21 (single isomer, unassigned) [(1aRS,7bSR)-5-[2((Z)-4-diethylaminobut-1-enyl)-4-fluorobenzenesulfonyl-amino]-1,1a,2,7b-tetrahydrocyclopropa[c]chromene-4-carboxylic acid]	6.30 to 7.30
CCN1CC[C@H](CNc2ccccc2S(=O)(=O)Nc2ccc3c(c2C(=O)O)OC[C@@H]2C[C@H]32)C1 (mixture of isomers) [(1aRS,7bSR)-5-{2-[((R)-1-Ethylpyrrolidin-3-ylmethyl)amino]-benzenesulfonylamino}-1,1a,2,7b-tetrahydrocyclopropa-[c]chromene-4-carboxylic acid]	6.30 to 7.30
CCN1CCN(CCc2cc(F)ccc2S(=O)(=O)Nc2ccc3c(c2C(=O)O)OC[C@@H]2C[C@H]32)CC1 (racemic) [(1aRS,7bSR)-5-{2-[2-(4-Ethylpiperazin-1-yl)-ethyl]-4-fluorobenzenesulfonylamino}-1,1a,2,7b-tetrahydrocyclopropa[c]chromene-4-carboxylic acid]	6.30 to 7.30
CCN1CCCC1C(=O)NCc1cc(F)ccc1S(=O)(=O)Nc1ccc2c(c1C(=O)O)OCC1CC21 (mixture of isomers) [(1aRS,7bSR)-5-{2-[((S)-1-Ethylpyrrolidin-2-yl)cabonyl-aminomethyl]-4-fluorobenzenesulfonylamino}-1,1a,2,7b-tetrahydrocyclopropa[c]chromene-4-carboxylic acid]	> 7.30
CCN1CCC[C@@H]1C(=O)N(C)Cc1cc(F)ccc1S(=O)(=O)Nc1ccc2c(c1C(=O)O)OCC1CC21 (mixture of isomers) [(1aRS,7bSR)-5-(2-{N-[((R)-1-Ethylpyrrolidine-2-yl)carbonyl]-N-methylaminomethyl}-4-fluorobenzenesulfonylamino)-1,1a,2,7b-tetrahydrocyclopropa[c]chromene-4-carboxylic acid]	6.30 to 7.30
CCN1CC[C@@H](CCNc2ccccc2S(=O)(=O)Nc2ccc3c(c2C(=O)O)OC[C@@H]2C[C@H]32)C1 (mixture of isomers) [(1aRS,7bSR)-5-{2-[2-((R)-1-Ethylpyrrolidin-3-yl)ethylamino]-benzenesulfonylamino}-1,1a,2,7b-tetrahydrocyclopropa-[c]chromene-4-carboxylic acid]	6.30 to 7.30
CCN(CC)CCCNc1ccccc1S(=O)(=O)Nc1ccc2c(c1C(=O)O)OCC1CC21 (stereo not drawn) [(1aRS,7bSR)-5-[2-(3-N,N,-Diethylaminopropylamino)benzene-sulfonylamino]-1,1a,2,7b-tetrahydrocyclopropa[c]chromene-4-carboxylic acid]	> 7.30
CCN1CC[C@@H](Cc2cc(F)ccc2S(=O)(=O)Nc2ccc3c(c2C(=O)O)OC[C@@H]2C[C@H]32)C1 (mixture of isomers) [(1aRS,7bSR)-5-[2-((R)-1-Ethylpyrrolidin-3-ylmethyl)-4-fluorobenzenesulfonyl-amino]-1,1a,2,7b-tetrahydro-cyclopropa[c]chromene-4-carboxylic acid]	> 7.30
CCN1CC[C@H](Nc2ccccc2S(=O)(=O)Nc2ccc3c(c2C(=O)O)OC[C@@H]2C[C@H]32)C1 (mixture of isomers) [(1aRS,7bSR)-5-{2-[((S)-1-Ethylpyrrolidin-3-yl)amino]-benzenesulfonylamino}-1,1a,2,7b-tetrahydrocyclopropa-[c]chromene-4-carboxylic acid]	6.30 to 7.30
CCN1CC[C@H](C(=O)NCc2cc(F)ccc2S(=O)(=O)Nc2ccc3c(c2C(=O)O)OCC2CC32)C1 (mixture of isomers) [(1aRS,7bSR)-5-(2-{[((S)-1-ethylpyrrolidine-3-carbonyl)amino]methyl}-4-fluoro-benzenesulfonylamino)-1,1a,2,7b-tetrahydrocyclopropa[c]chromene-4-carboxylic acid]	6.30 to 7.30
CCN1CCC[C@H]1CCc1cc(F)ccc1S(=O)(=O)Nc1ccc2c(c1C(=O)O)OC[C@@H]1C[C@H]21 [(1aR,7bS)-5-{2-[2-((R)-1-Ethylpyrrolidin-2-yl)ethyl]-4-fluorobenzenesulfonyl-amino}-1,1a,2,7b-tetrahydrocyclopropa-[c]chromene-4-carboxylic acid]	6.30 to 7.30
CCN(CC)C/C=C\c1cc(F)ccc1S(=O)(=O)Nc1ccc2c(c1C(=O)O)OC[C@@H]1C[C@H]21 [(1aR,7bS) 5-[2-((Z)-3-Diethylaminoprop-1-enyl)-4-fluorobenzenesulfonyl-amino]-1,1a,2,7b-tetrahydrocyclopropa[c]chromene-4-carboxylic acid]	> 7.30
O=C(O)c1c(NS(=O)(=O)c2ccc(F)cc2/C=C\CN2CCCC2)ccc2c1OC[C@@H]1C[C@H]21 (racemic) [(1aRS,7bSR)-5-{2[(Z)-3-(Pyrrolidin-1-yl)prop-1-enyl]-4-fluorobenzenesulfonylamino}-1,1a,2,7b-tetrahydro-cyclopropa[c]chromene-4-carboxylic acid]	> 7.30
CCN1CC[C@H](CCNc2ccccc2S(=O)(=O)Nc2ccc3c(c2C(=O)O)OC[C@@H]2C[C@H]32)C1 (mixture of isomers) [(1aRS,7bSR)-5-{2-[2-((S)-1-Ethylpyrrolidin-3-yl)ethylamino]-benzenesulfonyl-amino}-1,1a,2,7b-tetrahydrocyclopropa-[c]chromene-4-carboxylic acid]	6.30 to 7.30
O=C(O)c1c(NS(=O)(=O)c2ccc(F)cc2/C=C\CN2CCC2)ccc2c1OC[C@@H]1C[C@H]21 (racemic) [(1aRS,7bSR)-5-{2[(Z)-3-(Azetidin-1-yl)prop-1-enyl]-4-fluorobenzene-sulfonylamino}-1,1a,2,7b-tetrahydro-cyclopropa[c]chromene-4-carboxylic acid]	6.30 to 7.30
CN(C)CCCCNc1ccccc1S(=O)(=O)Nc1ccc2c(c1C(=O)O)OC[C@@H]1C[C@H]21 (racemic) [(1aRS,7bSR)-5-[2-(4-Dimethylaminobutylamino)benzene-sulfonylamino]-1,1a,2,7b-tetrahydrocyclopropa[c]chromene-4-carboxylic acid]	> 7.30
CN(C)CCCCNc1ccccc1S(=O)(=O)Nc1ccc2c(c1C(=O)O)OC[C@H]1OCC[C@@H]21 (racemic) [Cis-(3aRS,9bRS)-7-[2-(4-dimethylamino-butylamino)-benzenesulfonylamino]-1,3a,4,9b-tetrahydro-2H-furo[2,3-c]chromene-6-carboxylic acid]	6.30 to 7.30
